{"source": "patent US20070148232A1", "about": "“Stabilized pharmaceutical solid compositions of low-solubility drugs and poloxamers, and stabilizing polymers” (Pfizer Inc., priority 2003, published 2007)", "assay_type_in_all_cases": "physicochemical", "key": {"[1]": {"experiment": "in vitro dissolution test of Drug 1 compositions in MFDS", "settings": "dose 1000 μg/mL; for AUC / Drug 1 Concentration: MFDS, 37° C.", "procedure": "The solid composition of Example 1 was evaluated in an in vitro dissolution test as follows. For each test, the composition was added to microcentrifuge tubes in duplicate. […] The samples were quickly mixed using a vortex mixer for about 60 seconds. The samples were centrifuged at 13,000 G at 37° C. for 1 minute. The resulting supernatant solution was then sampled and diluted 1:6 (by volume) with methanol and then analyzed by high-performance liquid chromatography (HPLC). The contents of each respective tube were mixed on the vortex mixer and allowed to stand undisturbed at 37° C. until the next sample was taken. Samples were collected at 4, 10, 20, 40, 90, and 1200 minutes. As a control (C1), crystalline Drug 1 alone was added 1.8 mL of MFDS, at a sufficient amount so that the concentration of drug would have been 1000 μg/mL, if all of the drug had dissolved. […] Control C2 consisted of 50 wt % Drug 1 and 50 wt % HPMC. The composition was formed by first forming a spray solution consisting of […] Drug 1 and 250 mg HPMC in 58.7 gm of a 50.7:8 w/w mixture of acetone:water. This solution was pumped into a “mini” spray-drying apparatus via a Cole Parmer 74900 series rate-controlling syringe pump at a rate of 70 ml/hr. The spray solution was atomized through a Spraying Systems Co. two-fluid nozzle, Model No. SU1A, using a heated stream of nitrogen at a flow rate of 1 SCFM. The spray solution was sprayed into an 11-cm diameter stainless steel chamber. The heated gas entered the chamber at an inlet temperature of 110° C. and exited at ambient temperature. The resulting solid composition was collected on filter paper, dried under vacuum, and stored in a desiccator. This composition was tested in a dissolution test using the procedures described above except that a sufficient amount of the composition was added so that the concentration if all of the drug had dissolved would have been 3000 μg/mL. The stability of the solid composition of Example 1 was evaluated in an accelerated storage test. The composition was stored under elevated temperature and humidity conditions to increase the rate of physical changes occurring in the material in order to simulate a longer storage interval in a typical storage environment. A sample of the composition was stored for 3 weeks at 40° C./75% RH."}, "[2]": {"experiment": "glass transition temperature (Tg) by DSC", "settings": "at less than 5% RH", "from_the_text": "A solid composition was formed by a spray-drying process as follows. […] A spray solution was formed containing 2.5 wt % Viracept, 1.5 wt % Pluronic F127, 1.0 wt % HPMC, 85.5 wt % methanol, and 9.5 wt % water. The solution was mixed until the polymers and drug had all dissolved. The spray solution was pumped using a high-pressure pump to a spray drier (a Niro type XP Portable Spray-Dryer with a Liquid-Feed Process Vessel (“PSD-1”)), equipped with a pressure nozzle (model WG-126, from Delavan LTV). The PSD-1 was equipped with a 5-foot 9-inch chamber extension. The chamber extension was added to the spray dryer to increase the vertical length of the dryer. The added length increased the residence time within the dryer, which allowed the product to dry before reaching the angled section of the spray dryer. The spray drier was also equipped with a 316 SS circular diffuser plate with 1/16-inch drilled holes, having a 1% open area. […] The Tg of the resulting composition was determined by DSC to be about 107° C. at less than 5% RH.\nSolid compositions containing Drug 1 were prepared using various amounts of poloxamer 407 and the stabilizing polymers hydroxypropyl methyl cellulose and hydroxypropyl methyl cellulose acetate succinate as described below. […] The Tg of each composition, measured at a relative humidity of less than 10%, is also included in Table 6."}, "[3]": {"experiment": "in vitro dissolution test of Drug 2 compositions in PBS", "settings": "dose 1000 μg/mL; for AUC90 / MDC90: initial ninety minutes; for AUC / Drug 2 Concentration: PBS, 37° C.", "procedure": "The solid composition of Example 1 was evaluated in an in vitro dissolution test as follows. For each test, the composition was added to microcentrifuge tubes in duplicate. A 4.21 mg sample of the composition was added to each tube for a total concentration of 1000 μg/mL drug, if all of the drug had dissolved. The tubes were placed in a 37° C. temperature-controlled chamber, and 1.8 mL PBS containing 0.5 wt % sodium taurocholic acid and 1-palmitoyl-2-oleyl-sn-glycero-3-phosphocholine (NaTC/POPC, with a […] weight ratio) at pH 6.5 and 290mOsm/kg (model fasted duodenal solution, “MFDS”) was added to each respective tube. The samples were quickly mixed using a vortex mixer for about 60 seconds. The samples were centrifuged at 13,000 G at 37° C. for 1 minute. The resulting supernatant solution was then sampled and diluted 1:6 (by volume) with methanol and then analyzed by high-performance liquid chromatography (HPLC). The contents of each respective tube were mixed on the vortex mixer and allowed to stand undisturbed at 37° C. until the next sample was taken. Samples were collected at 4, 10, 20, 40, 90, and 1200 minutes.\nA sufficient amount of the composition was added to each tube (in duplicate) for a total concentration of 1000 μg/mL drug, if all of the drug had dissolved. The tubes were placed in a 37° C. temperature-controlled chamber, and 1.8 mL PBS was added.\nControl 5 (C5) consisted of crystalline Drug 2 alone, tested in PBS, and a sufficient amount of material was added so that the concentration of drug would have been 1000 μg/mL, if all the drug had dissolved.\nA sufficient amount of the composition was added to each tube (in duplicate) for a total concentration of 1000 μg/mL drug, if all of the drug has dissolved. The tubes were placed in a 37° C. temperature-controlled chamber, and 1.8 mL PBS was added.\nAs a control (C6), a composition consisting of 25 wt % Drug 2 and 75 wt % HPMCAS-HF was formed using the rotoevaporation process described for Example 6. The composition was tested in vitro, and a sufficient amount of material was added to PBS so that the concentration of drug would have been 1000 μg/mL, if all of the drug had dissolved."}, "[4]": {"experiment": "solubility in PBS, pH 6.5", "settings": "pH 6.5, aqueous buffer"}, "[5]": {"experiment": "in vitro dissolution test of Drug 1 compositions in PBS", "settings": "dose 1000 μg/mL; for AUC / Drug 1 Concentration: PBS, 37° C.", "procedure": "The solid composition of Example 1 was evaluated in an in vitro dissolution test as follows. For each test, the composition was added to microcentrifuge tubes in duplicate. […] The samples were quickly mixed using a vortex mixer for about 60 seconds. The samples were centrifuged at 13,000 G at 37° C. for 1 minute. The resulting supernatant solution was then sampled and diluted 1:6 (by volume) with methanol and then analyzed by high-performance liquid chromatography (HPLC). The contents of each respective tube were mixed on the vortex mixer and allowed to stand undisturbed at 37° C. until the next sample was taken. Samples were collected at 4, 10, 20, 40, 90, and 1200 minutes. […] The tubes were placed in a 37° C. temperature-controlled chamber, and 1.8 mL PBS was added. As a control (C4), crystalline Drug 1 alone was tested in PBS and a sufficient amount of material was added so that the concentration of drug would have been 1000 μg/mL, if all of the drug had dissolved."}, "[6]": {"settings": "Drug 1, MFDS, initial ninety minutes"}, "[7]": {"settings": "Drug 1, PBS, initial ninety minutes"}}}
{"smiles": "Cc1c(O)cccc1C(=O)N[C@@H](CSc1ccccc1)[C@H](O)CN1C[C@H]2CCCC[C@H]2C[C@H]1C(=O)NC(C)(C)C", "note": "[Drug 1, N-(1,1-dimethylethyl)decahydro-2-[(2R,3R)-2-hydroxy-3[(3-hydroxy-2-methylbenzoyl)amino]-4-(phenylthio)butyl]-3-isoquinolinecarboxamide (3s, 4aS, 8aS)-monomethanesulfonate]", "values": [{"measurement": "AUC90", "setting": "[1]; [6]", "result": "9,500 min*μg/mL"}, {"measurement": "MDC90", "setting": "[1]; [6]", "result": 118, "unit": "µg/mL"}, {"measurement": "AUC", "setting": "[1]; 0 min", "result": 0, "unit": "µg·min/mL"}, {"measurement": "Drug 1 Concentration", "setting": "[1]; 0 min", "result": 0, "unit": "µg/mL"}, {"measurement": "AUC", "setting": "[1]; 4 min", "result": 160, "unit": "µg·min/mL"}, {"measurement": "Drug 1 Concentration", "setting": "[1]; 4 min", "result": 80, "unit": "µg/mL"}, {"measurement": "AUC", "setting": "[1]; 10 min", "result": 700, "unit": "µg·min/mL"}, {"measurement": "Drug 1 Concentration", "setting": "[1]; 10 min", "result": 98, "unit": "µg/mL"}, {"measurement": "AUC", "setting": "[1]; 20 min", "result": "1,700 min*μg/mL"}, {"measurement": "Drug 1 Concentration", "setting": "[1]; 20 min", "result": 102, "unit": "µg/mL"}, {"measurement": "AUC", "setting": "[1]; 40 min", "result": "3,800 min*μg/mL"}, {"measurement": "Drug 1 Concentration", "setting": "[1]; 40 min", "result": 108, "unit": "µg/mL"}, {"measurement": "AUC", "setting": "[1]; 90 min", "result": "9,500 min*μg/mL"}, {"measurement": "Drug 1 Concentration", "setting": "[1]; 90 min", "result": 118, "unit": "µg/mL"}, {"measurement": "AUC", "setting": "[1]; 1200 min", "result": "247,000 min*μg/mL"}, {"measurement": "Drug 1 Concentration", "setting": "[1]; 1200 min", "result": 310, "unit": "µg/mL"}, {"measurement": "Tg", "setting": "[2]", "result": 119, "unit": "°C"}, {"measurement": "AUC90", "setting": "[3]; Drug 2, PBS", "result": "<100", "unit": "µg·min/mL"}, {"measurement": "MDC90", "setting": "[3]; Drug 2, PBS", "result": "<1", "unit": "µg/mL"}, {"measurement": "solubility", "setting": "[4]", "result": "~20", "unit": "µg/mL"}, {"measurement": "AUC90", "setting": "[5]; [7]", "result": 285, "unit": "µg·min/mL"}, {"measurement": "MDC90", "setting": "[5]; [7]", "result": 6, "unit": "µg/mL"}, {"measurement": "AUC", "setting": "[5]; 0 min", "result": 0, "unit": "µg·min/mL"}, {"measurement": "Drug 1 Concentration", "setting": "[5]; 0 min", "result": 0, "unit": "µg/mL"}, {"measurement": "AUC", "setting": "[5]; 4 min", "result": 11, "unit": "µg·min/mL"}, {"measurement": "Drug 1 Concentration", "setting": "[5]; 4 min", "result": 5, "unit": "µg/mL"}, {"measurement": "AUC", "setting": "[5]; 10 min", "result": 46, "unit": "µg·min/mL"}, {"measurement": "Drug 1 Concentration", "setting": "[5]; 10 min", "result": 6, "unit": "µg/mL"}, {"measurement": "AUC", "setting": "[5]; 20 min", "result": 106, "unit": "µg·min/mL"}, {"measurement": "Drug 1 Concentration", "setting": "[5]; 20 min", "result": 6, "unit": "µg/mL"}, {"measurement": "AUC", "setting": "[5]; 40 min", "result": 180, "unit": "µg·min/mL"}, {"measurement": "Drug 1 Concentration", "setting": "[5]; 40 min", "result": 2, "unit": "µg/mL"}, {"measurement": "AUC", "setting": "[5]; 90 min", "result": 285, "unit": "µg·min/mL"}, {"measurement": "Drug 1 Concentration", "setting": "[5]; 90 min", "result": 2, "unit": "µg/mL"}, {"measurement": "AUC", "setting": "[5]; 1200 min", "result": "12,730 min*μg/mL"}, {"measurement": "Drug 1 Concentration", "setting": "[5]; 1200 min", "result": 20, "unit": "µg/mL"}]}
{"smiles": "CCOC(=O)N1c2ccc(C(F)(F)F)cc2[C@@H](N(Cc2cc(C(F)(F)F)cc(C(F)(F)F)c2)C(=O)OC)C[C@H]1CC", "note": "[Drug 2, [2R,4S] 4-[(3,5-bis-trifluoromethyl-benzyl)-methoxycarbonyl-amino]-2-ethyl-6-trifluoromethyl-3,4-dihydro-2H-quinoline-1-carboxylic acid ethyl ester]", "values": [{"measurement": "Tg", "setting": "[2]", "result": "about 30 °C"}, {"measurement": "C1200", "setting": "[3]; Drug 2, PBS, concentration of drug at 1200 minutes", "result": "<1", "unit": "µg/mL"}, {"measurement": "AUC90", "setting": "[3]; Drug 2, PBS", "result": "<100", "unit": "µg·min/mL"}, {"measurement": "MDC90", "setting": "[3]; Drug 2, PBS", "result": "<1", "unit": "µg/mL"}, {"measurement": "AUC", "setting": "[3]; 0 min", "result": "<100", "unit": "µg·min/mL"}, {"measurement": "Drug 2 Concentration", "setting": "[3]; 0 min", "result": "<1", "unit": "µg/mL"}, {"measurement": "AUC", "setting": "[3]; 4 min", "result": "<100", "unit": "µg·min/mL"}, {"measurement": "Drug 2 Concentration", "setting": "[3]; 4 min", "result": "<1", "unit": "µg/mL"}, {"measurement": "AUC", "setting": "[3]; 10 min", "result": "<100", "unit": "µg·min/mL"}, {"measurement": "Drug 2 Concentration", "setting": "[3]; 10 min", "result": "<1", "unit": "µg/mL"}, {"measurement": "AUC", "setting": "[3]; 20 min", "result": "<100", "unit": "µg·min/mL"}, {"measurement": "Drug 2 Concentration", "setting": "[3]; 20 min", "result": "<1", "unit": "µg/mL"}, {"measurement": "AUC", "setting": "[3]; 40 min", "result": "<100", "unit": "µg·min/mL"}, {"measurement": "Drug 2 Concentration", "setting": "[3]; 40 min", "result": "<1", "unit": "µg/mL"}, {"measurement": "AUC", "setting": "[3]; 90 min", "result": "<100", "unit": "µg·min/mL"}, {"measurement": "Drug 2 Concentration", "setting": "[3]; 90 min", "result": "<1", "unit": "µg/mL"}, {"measurement": "AUC", "setting": "[3]; 1200 min", "result": "<100", "unit": "µg·min/mL"}, {"measurement": "Drug 2 Concentration", "setting": "[3]; 1200 min", "result": "<1", "unit": "µg/mL"}, {"measurement": "solubility", "setting": "[4]", "result": "< 1", "unit": "µg/mL"}]}
